The values that follow come from patent publication US12570655B2, “Cysteine covalent modifiers of AKT1 and uses thereof” (Terremoto Biosciences, Inc., priority 2023, dated 2026).

Like-named read-outs stand apart in the source and are kept apart here.

What all share (format): cell-based
In one assay the target is T1, AKT1 WT (Homo sapiens, UniProt P31749).
T1 construct: expressed in transfected cells; host or cells: HEK293
Description: Live cell AKT1 WT target engagement by NanoBRET competitive probe displacement. The conditions noted are these: HEK293 cells transfected with kinase-NanoLuciferase fusion, 2 h at 37° C. An outline of the steps:
(§1)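 NanoLuc-kinase fusions, HEK293, transfected overnight; compound serial dilution + ATP-competitive fluorescent tracer at ~EC50; 2 h, 37 °C. Read 460/600 nm with extracellular NanoLuc inhibitor; BRET = E600/E460; IC50 by Hill fit.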
On the technique in general: BRET reads energy transfer from a luciferase to a nearby fluorophore.

The subject of assay [1] is LAPC4 prostate cancer cells. The assay can be described thus: Antiproliferative effects in LAPC4 cells (CellTiter Glo). The conditions noted are these: LAPC4 cells (AKT1 E17K allele), read-out: LAPC4 proliferation IC50. In short, it runs like this: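 Luminescent ATP read-out (CellTiter Glo) after 72 h compound exposure; 1,000 cells/well in IMDM + 12% FBS + 1% P/S. IC50 by Hill equation fit of luminescence vs. log(inhibitor).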
(In general: ATP-based viability assays read luminescence as a measure of living cells.)

For the next assay, the target named is T2, AKT2 (Homo sapiens, UniProt P31751).
T2 construct: expressed in transfected cells; host or cells: HEK293
T2 sequence (P31751 whole entry): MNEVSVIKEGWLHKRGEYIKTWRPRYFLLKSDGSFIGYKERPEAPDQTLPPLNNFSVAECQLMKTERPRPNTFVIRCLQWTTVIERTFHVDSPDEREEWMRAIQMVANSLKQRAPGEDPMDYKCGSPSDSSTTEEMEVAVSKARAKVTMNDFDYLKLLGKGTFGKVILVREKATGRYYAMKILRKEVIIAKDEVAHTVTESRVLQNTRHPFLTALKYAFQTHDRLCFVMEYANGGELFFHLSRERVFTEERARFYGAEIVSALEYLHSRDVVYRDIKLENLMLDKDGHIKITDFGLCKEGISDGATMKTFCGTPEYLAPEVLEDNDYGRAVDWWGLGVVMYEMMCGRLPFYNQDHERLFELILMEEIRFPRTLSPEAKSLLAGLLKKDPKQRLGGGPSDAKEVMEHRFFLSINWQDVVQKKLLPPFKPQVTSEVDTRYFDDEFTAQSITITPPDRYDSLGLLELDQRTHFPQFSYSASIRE
The assay can be described thus: Live cell AKT2 target engagement by NanoBRET competitive probe displacement. Conditions: HEK293 cells transfected with kinase-NanoLuciferase fusion, 2 h at 37° C. An outline of the steps: as §1

In a further assay the target is T3, AKT1 E17K (Homo sapiens, UniProt P31749, E17K).
T3 construct: expressed in transfected cells; host or cells: HEK293
T3 sequence (P31749 whole entry E17K): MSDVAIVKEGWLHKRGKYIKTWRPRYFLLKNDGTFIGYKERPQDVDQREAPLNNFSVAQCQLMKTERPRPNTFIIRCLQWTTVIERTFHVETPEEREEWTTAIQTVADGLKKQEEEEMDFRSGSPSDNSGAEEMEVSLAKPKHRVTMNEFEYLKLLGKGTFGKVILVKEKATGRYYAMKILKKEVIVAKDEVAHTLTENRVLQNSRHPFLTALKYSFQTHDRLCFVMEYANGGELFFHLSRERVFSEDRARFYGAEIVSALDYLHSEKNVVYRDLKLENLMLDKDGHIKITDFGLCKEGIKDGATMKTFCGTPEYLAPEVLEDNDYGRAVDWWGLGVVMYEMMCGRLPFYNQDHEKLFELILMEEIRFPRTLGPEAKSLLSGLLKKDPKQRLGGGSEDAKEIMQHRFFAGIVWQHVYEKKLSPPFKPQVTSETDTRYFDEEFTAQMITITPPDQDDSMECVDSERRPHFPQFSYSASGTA
Description: Live cell AKT1 E17K target engagement by NanoBRET competitive probe displacement. Conditions: HEK293 cells transfected with kinase-NanoLuciferase fusion, 2 h at 37° C. An outline of the steps:
as §1

T1 sequence (P31749 whole entry): as the sequence (P31749 whole entry E17K) above, with K17E counted along it

Consider `C=CC(=O)N1CCC(N[C@@H]2c3ccc(-n4c(-c5cccnc5N)nc5ccc(-n6cccn6)nc54)cc3CC2F)C(C)C1` (single isomer, unassigned) [Example 289, 1-[(3*,4*)-4-{[(1R,2*)-5-[2-(2-aminopyridin-3-yl)-5-(pyrazol-1-yl)imidazo[4,5-b]pyridin-3-yl]-2-fluoro-2,3-dihydro-1H-inden-1-yl]amino}-3-methylpiperidin-1-yl]prop-2-en-1-one], for which the IC50 was found to be 799 nM on AKT1 WT, 682 nM in assay [1] (72 h), 145 nM at AKT2 and 19.6 nM at AKT1 E17K.
Take `N#CN1CCC(N[C@H]2CCc3cc(-n4c(-c5cccnc5N)nc5ccc(-n6cccn6)nc54)ccc32)CC1` [Example 51, 4-{[(1S)-5-[2-(2-aminopyridin-3-yl)-5-(pyrazol-1-yl)imidazo[4,5-b]pyridin-3-yl]-2,3-dihydro-1H-inden-1-yl]amino}piperidine-1-carbonitrile]: the IC50 at AKT1 WT was determined as 115 nM; in assay [1] (Homo sapiens, LAPC4, 72 h), 1460 nM; on AKT2, 5560 nM; at AKT1 E17K, 727 nM.
`C=CC(=O)N1CCN(N[C@@H]2CCc3cc(-n4c(-c5cccnc5N)nc5ccc(C6CC6)nc54)ccc32)CC1` [Example 350]: the IC50 was 2510 nM on AKT1 WT; 1090 nM in assay [1] (Homo sapiens, LAPC4, 72 h); 416 nM at AKT2; 72.7 nM at AKT1 E17K.
As to `C=C(F)C(=O)NCc1ccccc1C(=O)N[C@H]1CCc2cc(-n3c(-c4cccnc4N)nc4ccc(-n5cccn5)nc43)ccc21` [Example 264, N-[(1S)-5-[2-(2-aminopyridin-3-yl)-5-(pyrazol-1-yl)imidazo[4,5-b]pyridin-3-yl]-2,3-dihydro-1H-inden-1-yl]-2-[(2-fluoroprop-2-enamido)methyl]benzamide], the IC50 was found to be 937 nM at AKT1 WT; 1330 nM in assay [1] (Homo sapiens, LAPC4, 72 h); 171 nM on AKT2; 27.8 nM on AKT1 E17K.
For the compound `C=CC(=O)NCc1ccccc1C(=O)N[C@H]1CCc2cc(-n3c(-c4cccnc4N)nc4ccc(-n5nccn5)nc43)ccc21` [Example 263, (S)-N-[(1S)-5-[2-(2-aminopyridin-3-yl)-5-(1,2,3-triazol-2-yl)imidazo[4,5-b]pyridin-3-yl]-2,3-dihydro-1H-inden-1-yl]-2-(prop-2-enamidomethyl)benzamide], the IC50 at AKT1 WT is 2940 nM; in assay [1] (Homo sapiens, LAPC4, 72 h) it was 680 nM; on AKT2, 153 nM; at AKT1 E17K, 39.8 nM.
Regarding `C=CC(=O)N1CCC(N[C@H]2CCc3cc(-n4c(-c5cccnc5N)nc5ccc(-n6ccc(C7CC7)n6)nc54)ccc32)CC1` [Example 208, (S)-1-(4-((5-(2-(2-aminopyridin-3-yl)-5-(3-cyclopropyl-1H-pyrazol-1-yl)-3H-imidazo[4,5-b]pyridin-3-yl)-2,3-dihydro-1H-inden-1-yl)amino)piperidin-1-yl)prop-2-en-1-one], the IC50 on AKT1 WT was 77.8 nM; in assay [1] (Homo sapiens, LAPC4, 72 h), 69.8 nM; on AKT2, 26.1 nM; on AKT1 E17K it was 5.74 nM.
The like results for `Nc1ncccc1-c1nc2ccc(-n3cccn3)nc2n1-c1ccc2c(c1)CC[C@@H]2NC1CCN(C(=O)[C@H]2CO2)CC1` [Example 122, 3-{3-[(1S)-1-({1-[(2R)-oxirane-2-carbonyl]piperidin-4-yl}amino)-2,3-dihydro-1H-inden-5-yl]-5-(pyrazol-1-yl)imidazo[4,5-b]pyridin-2-yl}pyridin-2-amine] were, in that order, 41.3 nM, 116 nM, 305 nM and 112 nM.
As to `C=CC(=O)N1CCC(N[C@H]2CCc3cc(-n4c(-c5cccnc5N)nc5ccc(-n6ccc(OC7CC7)n6)nc54)ccc32)CC1` [Example 314, 1-(4-{[(1S)-5-[2-(2-aminopyridin-3-yl)-5-(3-cyclopropoxypyrazol-1-yl)imidazo[4,5-b]pyridin-3-yl]-2,3-dihydro-1H-inden-1-yl]amino}piperidin-1-yl)prop-2-en-1-one], the IC50 at AKT1 WT worked out at 95.1 nM; in assay [1] (Homo sapiens, LAPC4, 72 h) it was 54.9 nM; at AKT2, 23.8 nM; on AKT1 E17K, 7.44 nM.
